Experimental data taken from paper PMC9176062, “Phase Ib study of combinations of avadomide (CC‐122), CC‐223, CC‐292, and rituximab in patients with relapsed/refractory diffuse large B‐cell lymphoma” (EJHaem, 2022).

How the values were obtained:
patients with R/R DLBCL = experiment: Treatment duration, modification, and exposure; type: in vivo; conditions: for patients with dose reductions of the drug: all patients who received the drug
Protocol: CC‐122 hydrochloride, referred to here as CC‐122, as an active pharmaceutical ingredient in capsule (AIC) formulation, was administered orally once daily (QD). An alternate intermittent schedule of CC‐122 QD for five of every seven consecutive days (5/7), which improved tolerability and reduced the frequency and severity of neutropenia in a study of CC‐122 monotherapy in DLBCL, was also explored. CC‐292 was administered orally twice daily (BID) and CC‐223 was administered orally QD. Rituximab was administered on day 8 of cycle 1, day 1 of cycles 2–6, and day 1 of every third cycle thereafter. Patients in arm A received CC‐122 and CC‐223 with or without rituximab (starting at CC‐122 2 mg QD and CC‐223 20 mg QD), patients in arm B received CC‐122 plus CC‐292 with or without rituximab (starting at CC‐122 2 mg QD and CC‐292 500 mg BID), patients in arm C were treated with CC‐223 and CC‐292 (starting at CC‐223 20 mg QD and CC‐292 500 mg BID), and those in arm D received CC‐122 plus rituximab (starting at CC‐122 2 mg QD). In arm D, a CC‐122 3 mg formulated capsule was introduced with the same strength as CC‐122 3 mg AIC. Each dose level was cleared before the next was started. If unacceptable toxicity occurred at the initial dose level, dose reductions for CC‐122 (1.5 mg QD and 1 mg QD) and CC‐223 (15 mg QD) were allowed; no starting dose reductions for CC‐292 were planned. For arm A, the Safety Review Committee (SRC) determined which of the two drugs in the doublet to reduce. For arms B and D, the CC‐122 dose was reduced and for arm C, the CC‐223 dose was reduced. Assignment of patients to study arms was at the discretion of the investigator and based on slot availability per the study design.
Patients who experienced dose‐limiting toxicity (DLT) after receiving ≥1 dose of study treatment or those who received ≥80% of planned doses of CC‐122, CC‐223, CC‐292, and rituximab during cycle 1 without experiencing a DLT were considered DLT‐evaluable. If zero out of ≥3 or ≤1 out of six evaluable patients in a cohort experienced a DLT during cycle 1 in parallel dose cohorts, then dose escalation could occur. DLTs are defined in the Supplementary Materials; individual investigators performed response assessments and determined DLTs. The NTD was defined as the dose level at which ≥2 of six evaluable patients in a cohort experienced a DLT during cycle 1. […] During cycle 1, any adverse event (AE) that led to dose reduction was considered a DLT. Patients could resume CC‐122 at a reduced dose only if they recovered to grade ≤1 within 14 days of dose interruption; two dose reductions were allowed before the patient was withdrawn from the study. Dose reductions were permitted for CC‐122, CC‐223, and CC‐292; no dose reductions were allowed for rituximab, but treatment could be discontinued at the discretion of the investigator. […] For arms A, B, and D, CC‐122 dosing was modified to the intermittent 5/7‐day schedule based on SRC review and escalated until the MTD/RP2D was established. Treatment was given until disease progression, unacceptable toxicity, or patient/physician decision to withdraw consent.
^aTreatment duration defined as date of last derived dose – date of first dose + 1.
^bDefined as the ratio of actual dose received to planned dose over the treatment period.

[1] = Steady‐state plasma pharmacokinetics; type: in vivo; conditions: human, oral, CC‐223 + CC‐292 (arm C dose level 2, day 15); for clearance: read-out: apparent plasma clearance (converted); for Vd: read-out: mean apparent volume of distribution; for Tmax: read-out: median Tmax; for half-life: read-out: terminal half‐life (converted)
Protocol: (§1) AEs were assessed according to the National Cancer Institute Common Terminology Criteria for AEs, version 4.03, up to 28 days after the last treatment. Blood samples for PK analysis were collected on days 15 to 28, predose, and at 1.5 and 3 h post‐dose on days 1 and 15 of cycle 1 for all dose cohorts. Additional blood samples were collected on day 15 from patients in dose level 2 of arm C to examine CC‐223 and CC‐292 steady‐state PK. Pharmacodynamic biomarkers of each novel agent were explored at baseline and cycle 1, day 1 (pre‐dose, and at 1.5 and 3 h) and cycle 1, day 15 (pre‐dose, and at 1.5 and 3 h), including cereblon modulation substrates in B and T cells in patients treated with CC‐122 and mTOR signaling pathway biomarkers (e.g., p4EBP1 and pAKT) in patients treated with CC‐223. Tumor assessments were performed at screening and at the end of even‐numbered cycles through cycle 6, then every three cycles through cycle 12, and every 6 months thereafter. Responses were assessed by the investigator per International Working Group 2007 criteria.
Safety analyses were performed on all patients who received ≥1 dose of study treatment (safety population). The PK population comprised all patients who took ≥1 dose of study treatment and had ≥1 measured drug concentration. […] The biomarker‐evaluable population comprised all patients who took ≥1 dose of study treatment and had ≥1 pharmacodynamic assessment. Safety and efficacy analyses were based on the safety population except where noted (PK and biomarkers). PK parameters were calculated using actual times relative to the most recent administration. The median duration of response (DOR) and median PFS were calculated per the Kaplan‐Meier method.
FIGURE S3 Summary of pharmacokinetic parameters and mean plasma concentration-time profiles of (A) CC-223 and (B) CC-292. Summary of pharmacokinetic parameters and mean plasma concentration-time profiles of (A) CC-223 and (B) CC-292. […] Data are geometric means (CV%) except for Tmax, for which medians (min, max) are presented.

p4EBP1 = experiment: mTOR signaling pathway biomarker p4EBP1 in blood; type: in vivo, human
Protocol: as §1
(§2) Safety analyses were performed on all patients who received ≥1 dose of study treatment (safety population). The PK population comprised all patients who took ≥1 dose of study treatment and had ≥1 measured drug concentration. […] The biomarker‐evaluable population comprised all patients who took ≥1 dose of study treatment and had ≥1 pharmacodynamic assessment. […] PK parameters were calculated using actual times relative to the most recent administration. The median duration of response (DOR) and median PFS were calculated per the Kaplan‐Meier method.
(§3) Per cent change from baseline in Aiolos in CD3+ T cells (A) and CD19+ B cells (B) and in p4EBP1 (C) and pAKT (D) at 3 h post‐dose on day 1 of cycle 1 (biomarker‐evaluable population). The change in Aiolos expression in CD3+ T cells and CD19+ B cells was calculated within each avadomide‐ and CC‐223‐containing arm. *p ≤ 0.05 versus baseline; **p ≤ 0.01 versus baseline; ***p ≤ 0.001 versus baseline; DL, dose level; MEFL, molecules of equivalent fluorescence label; NS, not significant

pAKT = experiment: mTOR signaling pathway biomarker pAKT in blood; type: in vivo, human
Protocol: as §1, §2, §3

R/R DLBCL = conditions: cited from earlier work; for CR rates: monotherapy, third‐line setting
[2] = Overall (all arms with the drug)
[3] = arm A (with CC‐122), 20 mg of CC‐223, 3 h post‐dose vs baseline
[4] = arm C (with CC‐292), 20 mg of CC‐223, 3 h post‐dose
[5] = arm C (with CC‐292), CC‐223 15 mg
[6] = patients with a complete response

C=CC(=O)Nc1cccc(Nc2nc(Nc3ccc(OCCOC)cc3)ncc2F)c1 [CC‐292]
≥1 dose interruption (patients with R/R DLBCL; Arm B (Avadomide + CC-292 ± R)): 14 (51.9) n (%) | ≥1 dose interruption: Adverse event (patients with R/R DLBCL; Arm B (Avadomide + CC-292 ± R)): 5 (18.5) n (%) | ≥1 dose interruption: Other (patients with R/R DLBCL; Arm B (Avadomide + CC-292 ± R)): 8 (29.6) n (%) | ≥1 dose interruption: Per protocol (patients with R/R DLBCL; Arm B (Avadomide + CC-292 ± R)): 1 (3.7) n (%) | ≥1 dose reduction (patients with R/R DLBCL; Arm B (Avadomide + CC-292 ± R)): 12 (44.4) n (%) | ≥1 dose reduction: Adverse event (patients with R/R DLBCL; Arm B (Avadomide + CC-292 ± R)): 5 (18.5) n (%) | ≥1 dose reduction: Other (patients with R/R DLBCL; Arm B (Avadomide + CC-292 ± R)): 8 (29.6) n (%) | ≥1 dose reduction: Per protocol (patients with R/R DLBCL; Arm B (Avadomide + CC-292 ± R)): 1 (3.7) n (%) | ≥1 dose interruption (patients with R/R DLBCL; Arm C (CC-292 + CC-223)): 6 (42.9) n (%) | ≥1 dose interruption: Adverse event (patients with R/R DLBCL; Arm C (CC-292 + CC-223)): 3 (21.4) n (%) | ≥1 dose interruption: Other (patients with R/R DLBCL; Arm C (CC-292 + CC-223)): 1 (7.1) n (%) | ≥1 dose interruption: Per protocol (patients with R/R DLBCL; Arm C (CC-292 + CC-223)): 1 (7.1) n (%) | ≥1 dose reduction (patients with R/R DLBCL; Arm C (CC-292 + CC-223)): 4 (28.6) n (%) | ≥1 dose reduction: Adverse event (patients with R/R DLBCL; Arm C (CC-292 + CC-223)): 3 (21.4) n (%) | ≥1 dose reduction: Other (patients with R/R DLBCL; Arm C (CC-292 + CC-223)): 1 (7.1) n (%) | ≥1 dose reduction: Per protocol (patients with R/R DLBCL; Arm C (CC-292 + CC-223)): 1 (7.1) n (%) | ≥1 dose interruption (patients with R/R DLBCL; [2]): 20 (48.8) n (%) | ≥1 dose interruption: Adverse event (patients with R/R DLBCL; [2]): 8 (19.5) n (%) | ≥1 dose interruption: Other (patients with R/R DLBCL; [2]): 9 (22.0) n (%) | ≥1 dose interruption: Per protocol (patients with R/R DLBCL; [2]): 2 (4.9) n (%) | ≥1 dose reduction (patients with R/R DLBCL; [2]): 16 (39.0) n (%) | ≥1 dose reduction: Adverse event (patients with R/R DLBCL; [2]): 8 (19.5) n (%) | ≥1 dose reduction: Other (patients with R/R DLBCL; [2]): 9 (22.0) n (%) | ≥1 dose reduction: Per protocol (patients with R/R DLBCL; [2]): 2 (4.9) n (%) | patients with dose reductions of the drug (patients with R/R DLBCL): 39.0% | clearance [1]: ~1170 mL/min | Vd [1]: 334 L | Tmax [1]: 1.5 h | half-life [1]: ~3.3 h

CO[C@H]1CC[C@H](N2C(=O)CNc3ncc(-c4ccc(C(C)(C)O)nc4)nc32)CC1 [CC‐223]
≥1 dose interruption (patients with R/R DLBCL; Arm A (Avadomide + CC-223 ± R)): 25 (80.6) n (%) | ≥1 dose interruption: Adverse event (patients with R/R DLBCL; Arm A (Avadomide + CC-223 ± R)): 23 (74.2) n (%) | ≥1 dose interruption: Other (patients with R/R DLBCL; Arm A (Avadomide + CC-223 ± R)): 10 (32.3) n (%) | ≥1 dose interruption: Per protocol (patients with R/R DLBCL; Arm A (Avadomide + CC-223 ± R)): 1 (3.2) n (%) | ≥1 dose reduction (patients with R/R DLBCL; Arm A (Avadomide + CC-223 ± R)): 10 (32.3) n (%) | ≥1 dose reduction: Adverse event (patients with R/R DLBCL; Arm A (Avadomide + CC-223 ± R)): 7 (22.6) n (%) | ≥1 dose reduction: Other (patients with R/R DLBCL; Arm A (Avadomide + CC-223 ± R)): 2 (6.5) n (%) | ≥1 dose reduction: Per protocol (patients with R/R DLBCL; Arm A (Avadomide + CC-223 ± R)): 0 n (%) | ≥1 dose interruption (patients with R/R DLBCL; Arm C (CC-292 + CC-223)): 9 (64.3) n (%) | ≥1 dose interruption: Adverse event (patients with R/R DLBCL; Arm C (CC-292 + CC-223)): 8 (57.1) n (%) | ≥1 dose interruption: Other (patients with R/R DLBCL; Arm C (CC-292 + CC-223)): 3 (21.4) n (%) | ≥1 dose interruption: Per protocol (patients with R/R DLBCL; Arm C (CC-292 + CC-223)): 1 (7.1) n (%) | ≥1 dose reduction (patients with R/R DLBCL; Arm C (CC-292 + CC-223)): 1 (7.1) n (%) | ≥1 dose reduction: Adverse event (patients with R/R DLBCL; Arm C (CC-292 + CC-223)): 1 (7.1) n (%) | ≥1 dose reduction: Other (patients with R/R DLBCL; Arm C (CC-292 + CC-223)): 0 n (%) | ≥1 dose reduction: Per protocol (patients with R/R DLBCL; Arm C (CC-292 + CC-223)): 0 n (%) | ≥1 dose interruption (patients with R/R DLBCL; [2]): 34 (75.6) n (%) | ≥1 dose interruption: Adverse event (patients with R/R DLBCL; [2]): 31 (68.9) n (%) | ≥1 dose interruption: Other (patients with R/R DLBCL; [2]): 13 (28.9) n (%) | ≥1 dose interruption: Per protocol (patients with R/R DLBCL; [2]): 2 (4.4) n (%) | ≥1 dose reduction (patients with R/R DLBCL; [2]): 11 (24.4) n (%) | ≥1 dose reduction: Adverse event (patients with R/R DLBCL; [2]): 8 (17.8) n (%) | ≥1 dose reduction: Other (patients with R/R DLBCL; [2]): 2 (4.4) n (%) | ≥1 dose reduction: Per protocol (patients with R/R DLBCL; [2]): 0 n (%) | patients with dose reductions of the drug (patients with R/R DLBCL): 24.4% | median reduction in p4EBP1 levels (p4EBP1; [3]): approximately 30% | increase of p4EBP1 levels from baseline (p4EBP1; [4]): approximately 8% | reduction of p4EBP1 (p4EBP1; [5]): approximately 30% | median reduction in pAKT levels (pAKT; [3]): ~70% | median reduction of pAKT levels (pAKT; [4]): approximately 50% | reduction of pAKT levels (pAKT; [5]): approximately 50% | clearance [1]: ~405 mL/min | Vd [1]: 127 L | Tmax [1]: 1.5 h | half-life [1]: ~3.6 h

loncastuximab tesirine [reference compound]
CR rates (R/R DLBCL): 24%

lisocabtagene maraleucel
estimated 12‐month PFS rate (R/R DLBCL; [6]): 65%

O=C(/C=C\n1cnc(-c2cc(C(F)(F)F)cc(C(F)(F)F)c2)n1)NNc1cnccn1 [selinexor, reference compound]
CR rates (R/R DLBCL): 12%

tisagenlecleucel
36‐month PFS (R/R DLBCL; patients with a complete response at 3 months): 70%

axicabtagene ciloleucel
24‐month PFS (R/R DLBCL; [6]): 72%
